The nature of the assay: GFP-wavelength compound autofluorescence in cells – imaging, high-content imaging, artefact control, dose response (AID 2124).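 For all read-outs here: cells exposed to compound for 48 hours before fixing.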 To be noted: cells, GFP-channel autofluorescence, high-content imaging, at 10 µM; for z-score: stronger effect = higher value.

The structures appear in SMILES notation. Records with an inconclusive call do not appear. Active and inactive are the calls of the source. The rule behind the calls is not given here; tested in MIN6 cells.

As to `Cc1cccc(NC(=O)Nc2ccc(C#N)cc2)n1`, the z-score is -0.32 (inactive) and the cell count amounted to 2800 cells.

On to `CCCN1CC=C2C(C#N)=C(N)C(C#N)(C#N)C(c3cccc(OC)c3OC)C2C1` (stereo not drawn), for which the z-score was 0.21 and the cell count turned out to be 3050 cells.

Consider `O=Cc1sc(Nc2ccccc2)nc1Cl`, for which the z-score was -0.31 (inactive) and the cell count is 3150 cells.

As to `COc1ccccc1Nc1nc(Cl)c(C=O)s1`, the z-score is -0.31 (inactive) and the cell count turned out to be 2970 cells.

Regarding `COc1cccc(S(=O)(=O)NCc2ccc(C(=O)Nc3ccc(Cl)c(Cl)c3)cc2)c1`, the z-score is -0.33 (inactive) and the cell count was 2580 cells.

With `O=C(Nc1nnc(-c2ccccc2)o1)Nc1ccccc1Cl`, the z-score was -0.39 (inactive) and the cell count was found to be 2750 cells.

For the compound `CCC(=O)Nc1ccc(C(=O)OCC(=O)c2ccc(C)c([N+](=O)[O-])c2)cc1`, the z-score was -0.33 (inactive) and the cell count is 2960 cells.

On to `Cc1ccc(Nc2nc3c([nH]2)c(=O)n(C)c(=O)n3C)cc1`, for which the z-score was -0.39 (inactive) and the cell count was determined as 2720 cells.

With `N#Cc1c(-c2ccco2)cc(C2CC2)nc1SCC(=O)c1ccccc1`, the z-score is -0.27 (inactive) and the cell count worked out at 3090 cells.

On to `COc1cc(C)nc(N2CCCC(C(=O)Nc3cccc(Cl)c3C)C2)n1` (stereo not drawn), for which the z-score was -0.38 (inactive) and the cell count was found to be 3090 cells.

Regarding `CN1/C(=C\C=C2C(=O)NC(=S)NC2=O)C(C)(C)c2ccccc21`, the z-score is 3.61 and the cell count was 2700 cells.

`N#C/C(=C/c1ccc(-c2ccc(S(N)(=O)=O)cc2)o1)c1nc2ccccc2s1`: the z-score was 1.86 and the cell count came to 1680 cells.

Regarding `N#C/C(=C\C1=C(N2CCOCC2)C(=C/c2cccc([N+](=O)[O-])c2)/CC1)C(=O)Nc1ccccc1F`, the z-score was -0.32 (inactive) and the cell count is 2940 cells.

With `Nc1c(C(=O)N/N=C/c2cccnc2)oc2nc(-c3ccco3)cc(-c3ccco3)c12`, the z-score was -0.32 (inactive) and the cell count is 2960 cells.

In the case of `CC1CCCC(C2(O)C(=O)Nc3ccccc32)C1=O` (stereo not drawn), the z-score is -0.33 (inactive) and the cell count was determined as 3180 cells.

With `O=c1[nH]c2ccccc2nc1/C=C/c1ccc(F)cc1`, the z-score is -0.32 (inactive) and the cell count was 3060 cells.

Turning to `CN(CCCNC(=O)CN1C(=O)CC(C)(C)S(=O)(=O)c2ccccc21)C1CCCCC1`, the z-score is -0.33 (inactive) and the cell count came out at 3030 cells.

For `Cc1cc(N2C(=O)c3ccccc3C2=O)n(C)n1`, the z-score is -0.39 (inactive) and the cell count worked out at 2960 cells.

In the case of `CN(C)S(=O)(=O)Oc1cccc(C(=O)Nc2ccc([N+](=O)[O-])cc2)c1`, the z-score is -0.33 (inactive) and the cell count worked out at 2460 cells.

Turning to `CCN1/C(=C/c2ccc3cc(C)ccc3[n+]2CC)Sc2ccccc21`, the z-score is 1.64 and the cell count turned out to be 190 cells.

As to `COc1ccc(C(=O)N(CN2CCCC2=O)c2ccc(C)cc2)cc1`, the z-score is -0.33 (inactive) and the cell count worked out at 3380 cells.

Consider `CNC(=S)NNC(=O)c1oc2nc(-c3ccccc3)cc(-c3ccco3)c2c1N`, for which the z-score is -0.3 (inactive) and the cell count came to 2940 cells.

In the case of `CN(C)c1ccc(/C=C2\C(=N)N3C(=NC2=O)Sc2cc(S(C)(=O)=O)ccc23)cc1`, the z-score was -0.29 (inactive) and the cell count came out at 2790 cells.

As for `Cc1cc(C)cc(-n2c(=O)c3sccc3n(CC(=O)NCc3ccco3)c2=O)c1`, the z-score is -0.39 (inactive) and the cell count was found to be 3120 cells.

For the compound `O=Nc1c(O)n(Cc2ccc(Cl)cc2)c2ccccc12`, the z-score is -0.33 (inactive) and the cell count is 3420 cells.

`CC(C)CNC(=O)CSc1nnc(-c2cccc(S(=O)(=O)N3CCCCC3)c2)o1`: the z-score was -0.39 (inactive) and the cell count was 2900 cells.

`CC(=O)Oc1ccc2c(c1)Oc1cc(OC(C)=O)ccc1C21OC(=O)c2ccccc21`: the z-score was 4.32 and the cell count stood at 3270 cells.

`CC1CCc2c(sc3nn[nH]c(=O)c23)C1` (stereo not drawn): the z-score was -0.33 (inactive) and the cell count came out at 2750 cells.

Regarding `Cc1oc(C)c2c(=O)ccc3c(c12)OC(N)=C(C#N)C3c1ccccc1` (stereo not drawn), the z-score is -0.38 (inactive) and the cell count was 2830 cells.

Consider `CCOC(=O)CC1C(=O)NCCN1c1nc2ccc(C)cn2c(=O)c1/C=C1\SC(=S)N(C(C)CC)C1=O` (stereo not drawn), for which the z-score was -0.02 and the cell count is 2960 cells.

Consider `N#C/C(=C\C1=C(N2CCOCC2)C(=C\c2ccc(Cl)cc2)/CC1)C(=O)Nc1ccccc1F`, for which the z-score was -0.24 (inactive) and the cell count was found to be 3010 cells.

For `O=[N+]([O-])c1ccc(N(c2ccccc2)c2ccccc2)cc1`, the z-score was -0.32 (inactive) and the cell count amounted to 2510 cells.

As for `C=CCNC(=O)C1CC2Cn3c(nc4cc5ccccc5cc43)C2N1C` (stereo not drawn), the z-score is -0.39 (inactive) and the cell count was found to be 3390 cells.

With `O=C(c1cc([N+](=O)[O-])ccc1N1CCCC1)N1CCCC1`, the z-score was -0.38 (inactive) and the cell count was 3210 cells.

Turning to `CCOC(=O)c1sc(NC(=O)c2sccc2C)cc1C`, the z-score is -0.39 (inactive) and the cell count was found to be 3300 cells.

On to `CN1CCN(C2=CC3=CC(=C(C#N)C#N)CCC3CC2)CC1` (stereo not drawn), for which the z-score was 0.91 and the cell count worked out at 2810 cells.

Take `Nc1nc(-c2ccc(Cl)cc2)c(N=Nc2ccc(S(=O)(=O)N3CCOCC3)cc2)s1`: the z-score is -0.32 (inactive) and the cell count is 2990 cells.

For `COc1cccc(/C=N/NC(=O)c2oc3nc(-c4ccccc4)cc(-c4ccco4)c3c2N)c1`, the z-score was -0.32 (inactive) and the cell count stood at 3030 cells.

For the compound `CC(C)OC(=O)CN1C(=O)S/C(=C/c2ccc(N3CCCCC3)o2)C1=O`, the z-score is 0.56 and the cell count came out at 2120 cells.

As to `Cc1cc(C)c(C#N)c(SCC2COc3ccccc3O2)n1` (stereo not drawn), the z-score was -0.33 (inactive) and the cell count worked out at 3670 cells.

Turning to `CCOc1ccc(NC(=O)C2CCC(C)(C(=O)O)C2(C)C)cc1` (stereo not drawn), the z-score is -0.39 (inactive) and the cell count came to 3170 cells.

Take `COc1cccc(/C=N/NC(=O)CCn2cnc3ccccc32)c1`: the z-score was -0.33 (inactive) and the cell count amounted to 3250 cells.

Consider `CC1=CN2C(=N)/C(=C/c3ccc([N+](=O)[O-])o3)C(=O)N=C2S1`, for which the z-score was 0.75 and the cell count came to 348 cells.

Take `CCN(CC)c1ccc(/C=N/c2sc3c(c2C#N)C2CCN3CC2)c(O)c1`: the z-score is 1.45 and the cell count is 2490 cells.

For `CCOC(=O)c1ccc(CSc2nnc(-c3ccncc3)n2N)cc1`, the z-score is -0.33 (inactive) and the cell count worked out at 3110 cells.

Consider `Nc1c(C(=O)Nc2nccs2)sc2nc(-c3cccs3)cc(C(F)(F)F)c12`, for which the z-score is 0.39 and the cell count came out at 2940 cells.

Take `Cc1ccc(-n2c(O)c(/C=N/NC(=O)C3COc4ccccc4O3)c3ccccc3c2=O)cc1` (stereo not drawn): the z-score is -0.25 (inactive) and the cell count is 2870 cells.

Regarding `C1=C(c2ccccc2)Nc2nnnn2C1`, the z-score was -0.26 (inactive) and the cell count was determined as 3170 cells.

Turning to `Cc1cccc2sc(NC(=O)C3CCCN(S(=O)(=O)c4cccc5nonc45)C3)nc12` (stereo not drawn), the z-score was -0.28 (inactive) and the cell count was found to be 3130 cells.

Take `CCOc1cc(N(CC)CC)ccc1/C=C(/C#N)c1nc2ccccc2[nH]1`: the z-score was 1.08 and the cell count was 1870 cells.

Consider `CC1CC(=O)C2=C(C1)OC(N)=C(C#N)C2c1coc2ccccc2c1=O` (stereo not drawn), for which the z-score was -0.38 (inactive) and the cell count was 3180 cells.

Consider `Clc1ccc2oc(-c3ccccn3)nc2c1`, for which the z-score is -0.24 (inactive) and the cell count was 2940 cells.

In the case of `CCN1C(=O)CSc2ccc(C(=O)NCc3ccccc3OC)cc21`, the z-score was -0.33 (inactive) and the cell count was 2980 cells.

For `COC(=O)c1cc2c(-c3ccccc3)cc3ccccn3c-2c1C(=O)OC`, the z-score is -0.23 (inactive) and the cell count was determined as 2880 cells.

Take `COC1=CCC2([N+](=O)[O-])CN(CCO)CC1([N+](=O)[O-])C2` (stereo not drawn): the z-score was -0.33 (inactive) and the cell count stood at 3440 cells.

As for `COc1ccc(C2C(C(=O)c3ccccc3)=C(C)Nc3nc4ccccc4n32)c(OC)c1` (stereo not drawn), the z-score is -0.33 (inactive) and the cell count was 3000 cells.

Take `Cc1cccc(Oc2nccc(C(F)(F)F)c2C(=O)Nc2ccc(F)cc2F)c1`: the z-score is -0.39 (inactive) and the cell count was determined as 3510 cells.

`COc1ccc(CN(CC2CCC(C(=O)O)CC2)C(=S)Nc2cccc(C)c2)cc1` (stereo not drawn): the z-score is -0.38 (inactive) and the cell count came to 3120 cells.

Turning to `CN1CCN(c2ccc(/C=C3\C(=O)NC(=S)N(c4cccc(Br)c4)C3=O)o2)CC1`, the z-score is -0.26 (inactive) and the cell count was 3260 cells.

For `Cc1ccc(-n2c3c(c(=O)[nH]c2=O)C(C(F)(F)F)(C(F)(F)F)NC(=O)N3)cc1`, the z-score is -0.33 (inactive) and the cell count amounted to 2850 cells.

For `CCCCCOC(=O)C1=C(C)Nc2nnnn2C1c1ccc(OC)c(OC)c1OC` (stereo not drawn), the z-score was -0.39 (inactive) and the cell count was found to be 3580 cells.

Regarding `Nc1c(C(=O)O)sc2nc(-c3ccccc3)cc(-c3ccccc3)c12`, the z-score is -0.28 (inactive) and the cell count worked out at 3320 cells.

In the case of `CCCN1C(=O)c2cccc3c(N4CCCCC4)ccc(c23)C1=O`, the z-score was 0.28 and the cell count is 3300 cells.

Turning to `CCCCC(=O)Nc1ccc2c(c1)nc1n2CCSC1`, the z-score is -0.38 (inactive) and the cell count is 2870 cells.

The values are drawn from PubChem BioAssay AID2124 (Sanford-Burnham Center for Chemical Genomics, 2009).
